Here are results for 4 molecules from USRE33024E, “Bronchodilating 8-hydroxy-5-(1R)-1-hydroxy-2-(N-((1R)-2-(p-methoxyphenyl)-1-methylethyl) -amino)ethyl) carbostyril and intermediates thereof” (Tanabe Seiyaku Co. Ltd., priority 1983, dated 1989).

Counter-ions that a name gives are not always drawn.

For series [1], the system named is antigen-induced bronchoconstriction. As to the kind of experiment: Inhibitory effect on antigen-induced bronchoconstriction (Konzett-Rossler method). It counts as in vivo, guinea pig (Male Hartley). Conditions: Cavia porcellus, iv; i.v. one minute before ovalbumin challenge (30 μg/kg, i.v.); passively sensitized guinea pigs. As to the method:
Inhibitory effect on antigen-induced bronchoconstriction
Male Hartley guinea pigs (body weight: 280-520 g) were passively sensitized by intravenous injection of rabbit antiserum against ovalbumin (0.2 ml/100 g of body weight, PCA titer: ×1000), 24 hours later, the animals were anesthetized with α-chloralose (120 mg/kg, i.v.) and immobilized with gallamine triethiodide (5 mg/kg, i.v.) under artificial respiration. Lung volume changes were measured as overflow of air from the lung by the Konzett-Rossler method (cf. Arch. Exp. Pathol. Pharmakol., 195, 71 (1940)). The test compound was administered intravenously to the animals one minute before said animals were challenged with ovalbumin (30 μg/kg, i.v.). The ED50 (i.e., the dose of the test compound which is necessary to produce 50% reduction of antigen-induced bronchoconstruction) was estimated from the dose-response curve.

Another series is described as follows: in vivo. Particulars: mouse, iv. As to the method: (§1) A test compound was dissolved in 5% glucose solution, and the test compound solution (0.2 ml/10 g of body weight) was administered intravenously to Male ddY strain mice (body weight: 25-28 g). The LD50 of the test compound was estimated by the Up and Down method.
Series [2] has as its system isolated tracheal muscle preparations of Male Hartley guinea pigs. As to the kind of experiment: Bronchodilating activity: relaxation of histamine-induced contraction of isolated tracheal muscle preparations (Magnus' method). Details: species or system guinea pig (Male Hartley). As to the method: Isolated tracheal muscle preparations of Male Hartley guinea pigs (body weight: 430-645 g) were used to estimate the bronchodilating activity of a test compound according to Magnus' method. The preparation was suspended in an organ bath filled with 20 ml of Tyrode's solution (37° C.), and said solution was continuously bubbled with air. Histamine 2HCl was added to the bath (final concentration; 1×10^-5 g/ml) and the test compound was added thereto about 15 minutes after the addition of histamine 2HCl. Tension changes in the tracheal smooth muscle were recorded isometrically with a force-displacement transducer. Molar conentration of the test compound which produced 50% relaxation of the histamine-induced tracheal contraction were estimated from the concentration-response curve, and the potency ratio of the test compound to Isoproterenol was calculated therefrom.

Another series deals with Male ddY strain mice. Put plainly: Acute toxicity (Up and Down method). Particulars: mouse, in vivo. As to the method: as §1

Regarding `COc1ccc(C[C@@H](C)NC[C@H](O)c2ccc(O)c3[nH]c(=O)ccc23)cc1` (relative stereo) [Comp. No. 2, 8-hydroxy-5-{1-hydroxy-2-[N-(2-(p-methoxyphenyl)-1-methylethyl)amino]ethyl}carbotyril (α-isomer) hydrochloride], the 50% effective dose (ED50) in series [1] is 0.00018 mg/kg. The 50% lethal dose (LD50) in “in vivo” amounted to 91.3 mg/kg.

As for `COc1ccc(C[C@@H](C)NC[C@H](O)c2ccc(O)c3[nH]c(=O)ccc23)cc1.Cl` [Comp. No. 1, 8-hydroxy-5-{(1R)-1-hydroxy-2-[N-((1R)-2-(p-methoxyphenyl)-1-methylethyl)amino]ethyl}carbostyril hydrochloride], the “bronchodilating activity, times as strong as Isoproterenol” value in series [2] (isolated tracheal chains of guinea pigs, versus Isoproterenol) is given as around 100 times. For the same molecule, the “bronchodilating activity, times as strong as procaterol” value in series [2] (isolated tracheal chains of guinea pigs, versus procaterol) is listed as “about 10 times”. The molecule further returned a median lethal dose (LD50) in “in vivo” of 84.6 mg/kg.

Turning to `CCC(NC(C)C)C(O)c1ccc(O)c2[nH]c(=O)ccc12` (stereo not shown) [Procaterol, 8-hydroxy-5-[1-hydroxy-2-(isopropylamino)butyl]carbostyril hydrochloride hemihydrate, reference compound], the “Potency ratio (to Isoproterenol)” value in series [2] (from molar concentration giving 50% relaxation of histamine-induced tracheal contraction, histamine 2HCl 1×10^-5 g/ml, Tyrode's solution 37° C.) is recorded as 17. The ED50 in series [1] stood at 0.00064 mg/kg. In addition, in “in vivo”, the 50% lethal dose (LD50) came to 70.3 mg/kg and the selectivity ratio amounted to 110000.

Take `COc1ccc(CC(C)NCC(O)c2ccc(O)c3[nH]c(=O)ccc23)cc1` (stereo not shown) [compound (I)]: the “toxicity (in words)” value with Male ddY strain mice is “considerably low”.
